# From ChEMBL document CHEMBL4130353, “2-Substituted 3,7,8-trimethylnaphtho[1,2-b]furan-4,5-diones as specific L-shaped NQO1-mediated redox modulators for the treatment of non-small cell lung cancer” (Eur J Med Chem, 2017)
# Active and inactive are the calls of the source. The rule behind the calls is not given here.
# Legend:
# [1] = molecular target: NAD(P)H dehydrogenase [quinone] 1 (Homo sapiens) (UniProt P15559); assay: Substrate activity at recombinant human NQO1 expressed in Escherichia coli assessed as reduction rate by measuring umol of NADPH utilized per umol of enzyme at 10 uM preincubated for 3 mins followed by NADPH addition measured at 2 secs interval for 5 mins by UV-Vis spectroscopy
# Chain of NAD(P)H dehydrogenase [quinone] 1 (Homo sapiens) (P15559 whole entry): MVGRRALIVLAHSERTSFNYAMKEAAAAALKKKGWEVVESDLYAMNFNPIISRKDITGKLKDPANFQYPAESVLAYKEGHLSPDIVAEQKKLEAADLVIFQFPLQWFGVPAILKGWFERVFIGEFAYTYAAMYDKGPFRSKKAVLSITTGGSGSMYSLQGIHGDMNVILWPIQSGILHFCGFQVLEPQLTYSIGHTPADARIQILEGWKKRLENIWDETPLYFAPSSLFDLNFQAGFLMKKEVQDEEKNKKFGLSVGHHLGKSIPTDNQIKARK
# MCF7 = assay: Cytotoxicity against human MCF7 cells assessed as cell growth inhibition preincubated for 24 hrs followed by compound washout measured after 72 hrs by MTT assay; type: functional, cell-based
# HepG2 = assay: Cytotoxicity against human HepG2 cells assessed as cell growth inhibition preincubated for 24 hrs followed by compound washout measured after 72 hrs by MTT assay; type: functional, cell-based
# A549 [2] = assay: Effect on total AKT protein levels in human A549 cells at 10 uM after 3 hrs in presence of DIC by Western blot analysis relative to control; type: ADME, cell-based; conditions: a549, 3 h
# [3] = molecular target: NAD(P)H dehydrogenase [quinone] 1 (Homo sapiens) (UniProt P15559); assay: Substrate activity at NQO1 in human A549 cells assessed as induction of ROS-induced Akt phosphorylation at S473 at 10 uM after 3 hrs by Western blot analysis relative to control; type: cell-based
# [4] = molecular target: NAD(P)H dehydrogenase [quinone] 1 (Homo sapiens) (UniProt P15559); assay: Substrate activity at NQO1 in human A549 cells assessed as induction of ROS-induced Akt phosphorylation at […] at 10 uM after 3 hrs by Western blot analysis relative to control; type: cell-based
# [5] = molecular target: NAD(P)H dehydrogenase [quinone] 1 (Homo sapiens) (UniProt P15559); assay: Substrate activity at NQO1 in human A549 cells assessed as induction of ROS-induced JNK phosphorylation at 5 uM after 3 hrs by Western blot analysis relative to control; type: cell-based
# A549 [6] = assay: Effect on total p38 protein levels in human A549 cells at 5 uM after 3 hrs by Western blot analysis relative to control; type: ADME, cell-based; conditions: a549, 3 h
# A549 [7] = assay: Effect on total p38 protein levels in human A549 cells at 10 uM after 3 hrs in presence of NAC by Western blot analysis relative to control; type: ADME, cell-based; conditions: a549, 3 h
# [8] = molecular target: NAD(P)H dehydrogenase [quinone] 1 (Homo sapiens) (UniProt P15559); assay: Substrate activity at NQO1 in human A549 cells assessed as induction of ROS-induced p38 phosphorylation at T180/Y182 at 10 uM after 3 hrs by Western blot analysis relative to control; type: cell-based
# A549 [9] = assay: Effect on total ERK protein levels in human A549 cells at 5 uM after 3 hrs by Western blot analysis relative to control; type: ADME, cell-based; conditions: a549, 3 h
# A549 [10] = assay: Effect on total ERK protein levels in human A549 cells at 10 uM after 3 hrs in presence of DIC by Western blot analysis relative to control; type: ADME, cell-based; conditions: a549, 3 h
# [11] = molecular target: NAD(P)H dehydrogenase [quinone] 1 (Homo sapiens) (UniProt P15559); assay: Substrate activity at NQO1 in human A549 cells assessed as induction of ROS-induced ERK phosphorylation at 10 uM after 3 hrs in presence of NAC by Western blot analysis relative to control; type: cell-based
# [12] = molecular target: NAD(P)H dehydrogenase [quinone] 1 (Homo sapiens) (UniProt P15559); assay: Substrate activity at NQO1 in human A549 cells assessed as induction of ROS-induced Akt phosphorylation at S473 after 3 hrs by Western blot analysis; type: cell-based
# [13] = molecular target: NAD(P)H dehydrogenase [quinone] 1 (Homo sapiens) (UniProt P15559); assay: Substrate activity at NQO1 in human A549 cells assessed as induction of ROS-induced Akt phosphorylation at […] after 3 hrs by Western blot analysis; type: cell-based
# A549 [14] = assay: Induction of apoptosis in human A549 cells assessed as increase in cleaved PARP expression after 24 hrs by Western blot analysis; type: functional, cell-based
# Danio rerio = organism: Danio rerio; assay: Hepatotoxicity in 48 hrs post fertilized transgenic liver zebrafish larvae model expressing LFABP:EGFP protein at 10 uM measured after 48 hrs post dose by fluorescence based assay; type: organism-based; conditions: in vivo
# A549 [15] = assay: Induction of ROS levels in human A549 cells xenografted in athymic nude mouse at 15 to 30 mg/kg, iv administered every other day for 3 weeks by DCFH-DA-probe based flow cytometry; type: functional, organism-based
smiles,measurement,setting,value
Cc1cc2c(cc1C)-c1oc(CNc3ccc(CN4CCOCC4)cc3)c(C)c1C(=O)C2=O,Activity,[1],1520 µmol/min
same,IC50,MCF7,4.7 µM
same,IC50,HepG2,4.3 µM
same,fold change (FC),A549 [2],1.15
same,fold change (FC),[3],2.05
same,fold change (FC),[4],4.18
same,fold change (FC),[5],25.4
same,fold change (FC),A549 [6],1.1
same,fold change (FC),A549 [7],0.99
same,fold change (FC),[8],16.4
same,fold change (FC),A549 [9],0.97
same,fold change (FC),A549 [10],0.87
same,fold change (FC),[11],2.21
same,Activity,[12],Dose-dependent effect
same,Activity,[13],Dose-dependent effect
same,Activity,A549 [14],Dose-dependent effect
same,Activity,Danio rerio,Non-Toxic
same,Activity,A549 [15],Active
